Patent US8586613B2, “Pyridinium and quinolinium derivatives” (Universidad de Granada, priority 2004, dated 2013)

How the values were obtained:
[1] = target: T1, choline kinase from Plasmodium falcifarum (Pf-ChoK) (Plasmodium falciparum, UniProt Q8IM71); test: Sensitivity of Plasmodium falcifarum choline kinase (expressed in E. coli); type: biochemical; settings: read-out: IC50 (inhibition of Pf-ChoK)
T1 construct: made in house; host or cells: E. coli
Procedure: The sensitivity of choline kinase of the parasite Plasmodium falcifarum (Pf) was also tested with choline kinase inhibitors. Choline kinase from Pf was expressed in E. coli (FIG. 3) and tested for activity (data not shown). Optimal conditions were established and the IC50 determined.

HT-29 cells = test: HT-29 cell proliferation assay (Crystal Violet); type: cell-based, human; settings: six days of treatment
Procedure: The HT-29 cells were seeded in 24-well plates (35×10^3 cells/well) and were incubated for 24 hours. Then the cells were treated with different concentrations of ChoK inhibitors in the usual culture medium. Three days later, the wells were aspirated and both fresh medium and more amount of drug were added, and the cells were maintained for three more days. The quantification of the remaining cells in each well was carried out by means of the Crystal Violet method [Gillies, R. J., Didier, N., Denton, M. Anal. Biochem. 159, 109-113 (1986)], with some modifications [Hernández-Alcoceba, R., Saniger, L., Campos, J., Núñez, M. C., Khaless, F., Gallo, M. Á., Espinosa, A., Lacal, J. C. Oncogene, 15, 2289-2301 (1997)]. Briefly, the cells were washed with TD buffer and fixed with 1% glutaraldehyde for 15 minutes. After washing again with TD, the cell nuclei were coloured with 0.1% Crystal Violet for at least 30 minutes and washed three times with distilled water. The adsorbed colouring was resuspended in 10% acetic acid and the absorbance at 595 nm was determined in a spectrometer. […] This value determined by iterative curve adjustment. Two values are determined for each point of the curve, the experiment was repeated two or three times and the mean values were estimated. In the few cases in which the two values differed more than 50%, a third experiment was carried out to determine the real value. The IC50 value as a potency measurement is used to relate the biological activity of the compounds with their chemical structure.

[2] = tested on: MDA.MB.231 (breast cancer cell line) xenograft; test: Antitumor activity in breast xenografts (MDA.MB.231); type: in vivo, Balb/c nude mice
Procedure: (§1) Six-week-old Balb/c nude mice (Charles River) were used. The research protocol was approved by the National Biotechnology Centre (CNB) Ethics Committee and animals were maintained in accordance to the Spanish Law guidelines (12 h light/dark cycle, and ad libitum access to food and autoclaved water). Mice were inoculated s.c. in both lower flanks with 1×10^6 of MDA.MB.231 (breast cancer cell line) cells resuspended in 100 μL of serum free DMEN (Invitrogen) media. MDA.MB.231 cells were passed at 80% to 90% confluence every 2 to 3 days in DMEN (Invitrogen) supplemented with 10% fetal bovine serum (FBS, Invitrogen), to ensure exponential growth before using them for the in vivo experiments.
(§2) Mice developing measurable subcutaneous tumors (˜0.1 cm^3) within 3 to 4 weeks were randomized to either treated or control groups (treated only with the drug vehicle). Tumor growth was monitored by measuring their size two to three times per week. Tumors were measured in two dimensions with digital calipers and tumor volume was estimated using the formula of a rational ellipse (D×d^2)/2, where D is the length of the long diameter and d is the short one. […]
Body weight of mice was assessed once per week and tumor volumes of the untreated and treated groups were compared and analyzed using the non parametric Mann-Whitney test. […]

[3] = tested on: MCF10-A (non-transformed epithelial cells); test: MTT cell viability, panel of cell lines; type: cell-based; settings: Non-tumorogenic, 72 h
Procedure: (§3) This effect can be observed in Table 1, where sensitivity to RSM932A of non-transformed MCF-10A epithelial cells is compared to 12 different human-tumor-derived cells from different tissues, including breast, lung, colon and pancreatic tumor cell lines.
(§4) The experimental conditions were as follows: cells were seeded at 10,000 cells per well into 96-well plates (BD, Falcon, Bioscience, San Jose, Calif., USA). Exponentially growing cells for 24 hours were exposed to different concentrations (quadruplicates for each concentration) of the compound for 72 hours. The colorimetric assay MTT (3-(4,5-dimethylthiazol-2-yl)-2,5-diphenyltetrazolium bromide was used to assess cell viability. The reaction correlates with absorbance read at 595 nm in a VersaMax Microplate Reader (Molecular Devices, Sunnyvale, Calif., USA). The IC50 (50% inhibitory concentration of a substance) is quantified by plotting the log OD (optical density) versus log drug concentration. IC50: Concentration of the compound that causes 50% growth inhibition with respect to control cells without drug.

T47D = test: MTT cell viability, panel of cell lines; type: cell-based, human; settings: Breast, 72 h
Procedure: as §3, §4

Mia.PaCa.2 = test: MTT cell viability, panel of cell lines; type: cell-based, human; settings: Mia.PaCa.2, Pancreas, 72 h
Procedure: as §3, §4

SW620 = test: MTT cell viability, panel of cell lines; type: cell-based, human; settings: SW620, Colon, 72 h
Procedure: as §3, §4

H1299 = test: MTT cell viability, panel of cell lines; type: cell-based, human; settings: H1299, Lung, 72 h
Procedure: as §3, §4

HT-29 = test: MTT cell viability, panel of cell lines; type: cell-based, human; settings: HT-29, Colon, 72 h
Procedure: as §3, §4

HCT-116 = test: MTT cell viability, panel of cell lines; type: cell-based, human; settings: HCT-116, Colon, 72 h
Procedure: as §3, §4

DLD-1 = test: MTT cell viability, panel of cell lines; type: cell-based, human; settings: DLD-1, Colon, 72 h
Procedure: as §3, §4

SkBr-3 = test: MTT cell viability, panel of cell lines; type: cell-based, human; settings: SkBr-3, Breast, 72 h
Procedure: as §3, §4

H510 = test: MTT cell viability, panel of cell lines; type: cell-based, human; settings: H510, Lung, 72 h
Procedure: as §3, §4

H460 = test: MTT cell viability, panel of cell lines; type: cell-based, human; settings: H460, Lung, 72 h
Procedure: as §3, §4

MDA.MB.468 = test: MTT cell viability, panel of cell lines; type: cell-based, human; settings: MDA.MB.468, Breast, 72 h
Procedure: as §3, §4

MDA.MB.231 = test: MTT cell viability, panel of cell lines; type: cell-based, human; settings: MDA.MB.231, Breast, 72 h
Procedure: as §3, §4

[4] = tested on: H460 (human NSCLC cells) xenograft; test: Antitumor activity in lung xenografts (H460); type: in vivo, Balb/c nude mice
Procedure: as §1, with “H460 (human NSCLC cells)” for “MDA.MB.231 (breast cancer cell line)”, “RPMI” for “DMEN”, “H460” for “MDA.MB.231”, “in” for “them for”
as §2, with “(˜0.15-0.2” for “(˜0.1”, “2” for “3 to 4”
Body weight of mice was assessed once per week and tumor volumes between the untreated and treated groups were compared and analyzed using the non parametric Mann-Whitney test. […]

T1 sequence (Q8IM71 entry or part of it): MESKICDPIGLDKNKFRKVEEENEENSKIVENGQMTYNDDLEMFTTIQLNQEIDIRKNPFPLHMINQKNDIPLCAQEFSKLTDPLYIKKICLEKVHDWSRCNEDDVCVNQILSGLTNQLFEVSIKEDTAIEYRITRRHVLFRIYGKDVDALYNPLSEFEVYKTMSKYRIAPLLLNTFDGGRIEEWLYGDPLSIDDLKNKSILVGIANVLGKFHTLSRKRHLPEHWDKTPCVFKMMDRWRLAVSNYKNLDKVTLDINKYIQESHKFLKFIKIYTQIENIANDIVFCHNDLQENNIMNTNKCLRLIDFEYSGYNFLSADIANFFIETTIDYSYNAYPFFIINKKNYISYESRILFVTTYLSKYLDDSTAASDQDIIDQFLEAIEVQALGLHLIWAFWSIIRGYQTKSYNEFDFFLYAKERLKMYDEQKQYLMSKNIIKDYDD

For `CN(c1ccc(Cl)cc1)c1cc[n+](Cc2ccc(-c3ccc(C[n+]4ccc(N(C)c5ccc(Cl)cc5)c5ccccc54)cc3)cc2)c2ccccc12.[Br-].[Br-]` [Compound 7, 1,1′-(biphenyl-4,4′-diylmethylene)bis[4-(4-chloro-N-methylanilino)quinolinium]dibromide], the IC50 [1] was 930 nM, the IC50 (HT-29 cells) was 1200 nM and the “Loss Weight” value ([2]; MDA.MB.231 xenograft mice, 1st day vs last day of treatment (24 g to 22.2 g)) was 7.5%. The “percentage of inhibition of tumor growth” value ([2]; MDA.MB.231 xenograft, 5 mg/kg i.p., three days per week for three weeks, after 20 days, relative to control mice) was 54.5%, the IC50 [3] was 7100 nM and the IC50 (T47D) was 2250 nM. For the same compound, the IC50 (Mia.PaCa.2) was 2300 nM, the IC50 (SW620) was 2100 nM and the IC50 (H1299) was 1900 nM. The IC50 (HT-29) was 1700 nM, the IC50 (HCT-116) was 1800 nM and the IC50 (DLD-1) was 2100 nM. The IC50 (SkBr-3) was 3100 nM, the IC50 (H510) was 1400 nM and the IC50 (H460) was 1900 nM. For the same compound, the IC50 (MDA.MB.468) was 2400 nM, the IC50 (MDA.MB.231) was 1300 nM and the “Loss Weight” value ([4]; H460 xenograft mice, 1st day vs last day of treatment (23.2 g to 20.8 g)) was 10.5%. The “percentage of inhibition of tumor growth” value ([4]; H460 xenograft, 6 mg/kg i.p., five days in a week plus a boost, after 22 days, relative to control mice) was 64.5%.
